The target in assay [1] is Latent membrane protein 1 (Human herpesvirus 4 (strain B95-8), UniProt P03230). Nature of the assay: LMP1 TES1 pathway selectivity over dsRED control – imaging, HEK293T, dual-color eGFP/dsRED, cherry-picks, selectivity assay for LMP1 NF-kB inhibitor project, dose response (AID 588398). The assay is classed as functional, cell-based.
Another assay relates to CHO. Nature of the assay: CHO cell viability loss, potency – luminescence, cytotoxicity control for TLR9-MyD88 binding inhibitor project, dose response (AID 588339).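 Also: CHO cells stably coexpressing TLR9 and MyD88 fusions from primary screen; compound exposure lasted 48 hours before viability readout.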 The following applies: Cricetulus griseus. Format: functional, cell-based, hamster.
Assay [2] in a line: Luminescence Cell-Based Dose Retest to Confirm Inhibitors of Cancer Stem Cells. [Related pubchem assays (depositor defined):AID2717, AID2721]. Format: functional. The following applies: Homo sapiens.
Another assay concerns the target Beta Lactamase (Pseudomonas aeruginosa, UniProt Q932Y6). Kind of assay: BLA reporter interference, concentration series – BLA reporter cells, FRET fluorescence, artefact control for TLR9-MyD88 binding inhibitor project, dose response (AID 588341).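 Also: cell based assay in CHO-K1 cells stably expressing beta-lactamase.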 The assay is classed as cell-based.
For the next assay, the system named is HEK293. Kind of assay: EBV LMP1 TES2 canonical NF-kB signalling blockers – cell-based, HEK293, luciferase, cherry-pick, dose response (AID 588343). The assay is classed as functional. The following applies: Homo sapiens.
A further assay deals with T1, Protein Rev (Human immunodeficiency virus type 1 group M subtype B (isolate HXB2)(HIV-1), UniProt P04618).
T1 sequence (P04618 whole entry): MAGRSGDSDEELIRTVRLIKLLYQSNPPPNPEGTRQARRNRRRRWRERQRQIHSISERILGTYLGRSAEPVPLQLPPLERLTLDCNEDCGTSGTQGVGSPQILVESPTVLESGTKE
Nature of the assay: blockers of HIV Rev/RRE RNA complex – biochemical, fluorescence polarization, HIV-1, dose response (AID 434976). Further details: species or system Human immunodeficiency virus 1.

Assay [3] addresses T2, Female germline-specific tumor suppressor gld-1 (Caenorhabditis elegans, UniProt Q17339).
T2 sequence (Q17339 whole entry): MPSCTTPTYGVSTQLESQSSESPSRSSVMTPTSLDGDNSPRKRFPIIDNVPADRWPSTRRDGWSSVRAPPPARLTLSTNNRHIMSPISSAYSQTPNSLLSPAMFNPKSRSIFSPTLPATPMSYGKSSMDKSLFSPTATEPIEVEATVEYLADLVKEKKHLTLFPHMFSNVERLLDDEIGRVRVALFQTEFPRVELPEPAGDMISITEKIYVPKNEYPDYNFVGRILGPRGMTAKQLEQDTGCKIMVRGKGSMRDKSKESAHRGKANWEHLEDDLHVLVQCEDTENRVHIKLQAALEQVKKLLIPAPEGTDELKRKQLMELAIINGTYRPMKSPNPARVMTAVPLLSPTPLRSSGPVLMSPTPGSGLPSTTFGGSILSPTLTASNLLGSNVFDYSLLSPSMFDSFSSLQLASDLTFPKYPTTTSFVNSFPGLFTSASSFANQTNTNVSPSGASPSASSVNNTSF
Nature of the assay: blockers of GLD-1/TGE RNA complex formation – biochemical, fluorescence polarization, C. elegans, dose response (AID 2802).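 Also: fluorescence polarization of labeled TGE RNA bound by purified gld-1 protein.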

The next assay deals with Cytochrome P450 3A4 (Homo sapiens, UniProt P08684).
Chain of Cytochrome P450 3A4 (P08684 whole entry): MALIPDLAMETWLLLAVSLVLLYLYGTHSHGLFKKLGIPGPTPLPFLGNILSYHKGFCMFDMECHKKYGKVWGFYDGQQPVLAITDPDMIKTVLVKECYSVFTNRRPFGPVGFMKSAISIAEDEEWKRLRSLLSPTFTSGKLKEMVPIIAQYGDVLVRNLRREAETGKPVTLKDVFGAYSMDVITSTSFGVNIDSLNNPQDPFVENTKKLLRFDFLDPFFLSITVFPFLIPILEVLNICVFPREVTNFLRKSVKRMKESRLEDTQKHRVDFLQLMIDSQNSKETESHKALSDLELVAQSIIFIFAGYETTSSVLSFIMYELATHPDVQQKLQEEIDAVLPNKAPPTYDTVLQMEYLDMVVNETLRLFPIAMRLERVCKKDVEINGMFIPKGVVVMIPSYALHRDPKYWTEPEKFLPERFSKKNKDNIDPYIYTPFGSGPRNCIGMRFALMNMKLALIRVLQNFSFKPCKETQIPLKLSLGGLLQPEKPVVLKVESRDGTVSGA
A short description of assay [4]: DRD fibroblast viability loss – cell-based, non-viral oncogenic, luminescence, dose response (AID 1934). The assay is classed as functional. Particulars: Homo sapiens.
For assay [5], the target named is DNA dC->dU-editing enzyme APOBEC-3G (Homo sapiens, UniProt Q9HC16). Nature of the assay: Dose Response confirmation of small molecule APOBEC3G DNA Deaminase Inhibitors via a fluorescence-based single-stranded DNA deaminase assay. [Related pubchem assays (depositor defined):AID493012, AID493028]. The assay is classed as functional.
Chain of DNA dC->dU-editing enzyme APOBEC-3G (Q9HC16 whole entry): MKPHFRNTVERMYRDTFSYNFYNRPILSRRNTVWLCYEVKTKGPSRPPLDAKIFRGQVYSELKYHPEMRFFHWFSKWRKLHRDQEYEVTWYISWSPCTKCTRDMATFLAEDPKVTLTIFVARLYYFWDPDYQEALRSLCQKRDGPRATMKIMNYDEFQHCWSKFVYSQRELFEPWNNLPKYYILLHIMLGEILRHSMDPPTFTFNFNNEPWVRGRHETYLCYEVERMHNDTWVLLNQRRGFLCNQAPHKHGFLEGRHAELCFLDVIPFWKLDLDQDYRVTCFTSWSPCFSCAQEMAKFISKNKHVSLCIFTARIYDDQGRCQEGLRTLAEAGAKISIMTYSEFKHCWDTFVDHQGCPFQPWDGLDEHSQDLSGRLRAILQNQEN
In assay [6] the test system is BJ. Nature of the assay: cells. Format: functional, cell-based. Particulars: Homo sapiens.
The test system of assay [7] is BJ. Nature of the assay: growth inhibition of engineered Ras-driven BJ cells – cell-based, alamar blue fluorescence, cherrypicked samples, dose response (AID 2631).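 Also: confirmatory dose-response assay in RAS-dependent BJ fibroblasts engineered with TERT, LT and ST, with cytotoxicity read by fluorescence.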 The assay is classed as functional. The following applies: Homo sapiens. For orientation: Resazurin is reduced to fluorescent resorufin, in cell work by metabolically active cells.
Assay [8] has as its target T3, Mannose-6-phosphate isomerase (Homo sapiens, UniProt P34949).
T3 sequence (P34949 whole entry): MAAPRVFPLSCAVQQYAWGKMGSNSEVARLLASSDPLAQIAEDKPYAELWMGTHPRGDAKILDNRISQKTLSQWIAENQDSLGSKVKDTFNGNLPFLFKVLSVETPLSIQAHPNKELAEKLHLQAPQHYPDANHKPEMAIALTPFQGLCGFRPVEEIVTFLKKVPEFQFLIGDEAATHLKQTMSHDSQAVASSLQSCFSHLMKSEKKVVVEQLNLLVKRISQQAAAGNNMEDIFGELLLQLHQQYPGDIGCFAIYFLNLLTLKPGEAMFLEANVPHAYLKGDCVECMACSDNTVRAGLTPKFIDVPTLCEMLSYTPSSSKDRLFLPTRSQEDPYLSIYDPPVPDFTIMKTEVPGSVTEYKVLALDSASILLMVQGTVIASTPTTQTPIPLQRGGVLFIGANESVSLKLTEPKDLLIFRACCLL
Nature of the assay: MPI inhibition at elevated mannose 6-phosphate – biochemical, fluorescence intensity, high mannose 6-phosphate, primary screen (AID 1220).

Assay [9] addresses DNA dC->dU-editing enzyme APOBEC-3A (Homo sapiens, UniProt P31941). Kind of assay: A3A deaminase inhibition for selectivity – biochemical, dose response (AID 504722). Format: functional.
Assay [10] deals with Sphingosine 1-phosphate receptor 2 (Homo sapiens, UniProt O95136). Nature of the assay: Dose Response Cell Based Assay for Antagonists of the S1P2 Receptor. [Related pubchem assays: 856, 736 ]. The assay is classed as functional.
Chain of Sphingosine 1-phosphate receptor 2 (O95136 whole entry): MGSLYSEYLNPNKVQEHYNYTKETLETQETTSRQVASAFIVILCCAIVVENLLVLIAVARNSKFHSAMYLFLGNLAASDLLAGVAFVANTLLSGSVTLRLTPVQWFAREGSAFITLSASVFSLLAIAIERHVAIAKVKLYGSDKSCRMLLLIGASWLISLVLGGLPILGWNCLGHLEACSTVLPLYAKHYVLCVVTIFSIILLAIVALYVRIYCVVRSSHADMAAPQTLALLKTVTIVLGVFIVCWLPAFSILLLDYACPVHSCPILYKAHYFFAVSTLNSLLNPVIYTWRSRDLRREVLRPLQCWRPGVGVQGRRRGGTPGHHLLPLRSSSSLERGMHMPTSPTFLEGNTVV
Assay [11] concerns BJ. Nature of the assay: BJ-TERT fibroblast viability loss – cell-based, RAS-independent, luminescence, dose response (AID 1933). The assay is classed as functional. The following applies: Homo sapiens.
For assay [12], the system named is BJ. Nature of the assay: BJ-TERT-LT-ST fibroblast viability loss – cell-based, RAS-independent, luminescence, dose response (AID 1935).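 Also: BJ fibroblasts immortalized with TERT plus LT and ST oncogenes.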 The assay is classed as functional. Particulars: Homo sapiens.

The results in this text go back to ChEMBL document CHEMBL1201862, “PubChem BioAssay data set” (2004).

What is called AC50 is the concentration giving half of the maximal activity seen. What is called IC50 is the point on the concentration scale where inhibition reaches its midpoint. A word on the EC50: it is the concentration giving half of the maximal effect.

The structures appear in SMILES notation. The source made the active and inactive calls.

Chain of Latent membrane protein 1 (P03230 whole entry, the tested form may be a part): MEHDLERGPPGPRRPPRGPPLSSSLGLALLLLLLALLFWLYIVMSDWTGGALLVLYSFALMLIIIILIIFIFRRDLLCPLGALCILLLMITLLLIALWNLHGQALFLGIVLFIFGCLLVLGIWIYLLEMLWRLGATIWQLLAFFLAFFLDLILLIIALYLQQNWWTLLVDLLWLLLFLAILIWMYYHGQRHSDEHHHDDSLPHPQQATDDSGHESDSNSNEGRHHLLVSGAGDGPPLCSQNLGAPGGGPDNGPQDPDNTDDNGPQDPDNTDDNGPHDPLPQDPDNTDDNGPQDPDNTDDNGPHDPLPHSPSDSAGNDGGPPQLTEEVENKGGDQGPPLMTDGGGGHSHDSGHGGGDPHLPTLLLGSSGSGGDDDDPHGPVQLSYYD
Chain of Beta Lactamase (Q932Y6 whole entry): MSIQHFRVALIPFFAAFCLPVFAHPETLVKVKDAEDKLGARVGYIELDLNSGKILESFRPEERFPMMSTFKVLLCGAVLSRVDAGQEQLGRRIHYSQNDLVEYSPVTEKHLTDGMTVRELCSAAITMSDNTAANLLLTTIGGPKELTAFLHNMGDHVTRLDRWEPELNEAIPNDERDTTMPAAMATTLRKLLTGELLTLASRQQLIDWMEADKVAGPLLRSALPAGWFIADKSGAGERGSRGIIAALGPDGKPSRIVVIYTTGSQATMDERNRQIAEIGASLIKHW
Chain of DNA dC->dU-editing enzyme APOBEC-3A (P31941 whole entry): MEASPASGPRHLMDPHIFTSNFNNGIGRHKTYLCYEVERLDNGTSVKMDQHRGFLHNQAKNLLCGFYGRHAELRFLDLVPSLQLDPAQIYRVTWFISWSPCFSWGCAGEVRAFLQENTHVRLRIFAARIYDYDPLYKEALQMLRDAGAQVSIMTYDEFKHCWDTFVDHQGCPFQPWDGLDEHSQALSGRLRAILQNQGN

On to `COc1cccc(-c2nc(NCc3ccccc3)c3ccccc3n2)c1O`, for which the AC50 in [1] was 91 µM (active).

On to `CCC(C)Sc1ccc(-c2nc3cnccn3c2NC2CCCCC2)cc1` (stereo not given), for which the values for the IC50 in the assay with CHO and on Beta Lactamase were 21.4 µM (inactive) and 3.68 µM (active), respectively. Besides, in assay [2], the AC50 is 3.63 µM (active).

As to `Cc1ccc(S(=O)(=O)NC(CC(C)C)C(=O)NCC(c2ccco2)N2CCCCC2)cc1` (stereo not given), the AC50 in assay [1] was 24.5 µM (active); in the assay on HEK293, 1.8 µM (active).

In the case of `Cc1ccc(S(=O)(=O)N[C@H](C(=O)Oc2ccc3c(C(F)(F)F)cc(=O)oc3c2)c2ccccc2)cc1`, the IC50 was 26.9 µM (not active) against Protein Rev, > 49.7 µM (inactive) with CHO, 3.89 µM (active) in assay [3] and 3.73 µM (active) at Beta Lactamase. In addition, the AC50 at Cytochrome P450 3A4 is 25.1 µM (inconclusive).

Consider `CC1=C/C(=N\OS(=O)(=O)c2ccccc2)C=CC1=O`, for which the EC50 in [4] is 6.19 µM (active); with BJ [6], 3.33 µM (active); in the assay with BJ [7] it was 0.542 µM (inconclusive); in the assay with BJ [11], 2.56 µM (active); with BJ [12], 4.43 µM (inconclusive). In addition, the IC50 in assay [5] was 7.43 µM (active); in assay [8], 2.71 µM (active); in assay [9], > 100 µM (inactive); in assay [10] it was 5.98 µM (active).
